Structures are written as SMILES. In brackets after ≈: the same amount, converted by molar mass. Where two headings read alike, the source gives them in different places.

What is called MIC is the smallest concentration in the dilution series that meets the test's criterion for growth inhibition. A word on the IC50: it is the midpoint of a concentration-inhibition curve.

Data set [1] deals with Candida albicans ATCC 44859. Nature of the data set: In vitro antifungal susceptibility, broth microdilution. The note with it: read-out: MIC (IC80) CA. It counts as cell-based. A general note: Dilution methods test growth across graded concentrations, often in twofold steps.
The nature of data set [2]: Lipophilicity determination using RP-HPLC (capacity factor, log k). It is filed as physicochemical. The following applies: C18, MeOH 55%/H2O 45%. The procedure, abridged: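 Isocratic RP-HPLC on a C18 column (5 μm, 4.6 × 250 mm), 55% MeOH/45% water at 0.9 mL/min, 30 °C, UV detection 210 nm. Dead time from KI; capacity factor k = (tR − tD)/tD, with log k taken as the lipophilicity index on log P scale.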

In data set [3] the test system is Trichosporon beigelii 1188. Nature of the data set: In vitro antifungal susceptibility, broth microdilution. It is filed as cell-based. The following applies: read-out: MIC (IC80) TB. The essentials:
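Twofold dilutions (500 to 0.975 μmol/L final) in RPMI 1640 with MOPS, pH 7.0, per CLSI broth microdilution. MIC taken as IC80 for yeasts (M27-A2) or IC50 for moulds (M38-A) versus drug-free control, read after 24 and 48 h static incubation at 35 °C.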

The next data set deals with Candida tropicalis 156. The description is as above. It is filed as cell-based. The following applies: read-out: MIC (IC80) CT.
The subject of data set [4] is Trichophyton mentagrophytes 445. The data set is described as above. It counts as cell-based. The following applies: read-out: MIC (IC50) TM.
Data set [5] has as its system Aspergillus fumigatus 231. The data set is described as above. It counts as cell-based. The following applies: read-out: MIC (IC50) AF.
The test system of data set [6] is photosynthetic electron transport (PET) in spinach chloroplasts. Briefly: Inhibition of photosynthetic electron transport (PET) in spinach chloroplasts. The following applies: DCPIP photoreduction. It is filed as biochemical, Spinacia oleracea L. The essentials:
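PET in spinach chloroplasts was followed spectrophotometrically as DCPIP photoreduction in pH 7.2 phosphate buffer with sucrose, MgCl2 and NaCl, at 30 mg/L chlorophyll, under halogen-lamp irradiation at 22 °C. Compounds were added in DMSO. IC50 is the molar concentration halving the rate relative to untreated control.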

Setting [7] is: Trichosporon beigelii, 1188, 24 h.
Setting [8] is: Trichosporon beigelii, 1188, 48 h.
[9] abbreviates: Trichophyton mentagrophytes, 445, 72 h.
The mark [10] stands for this setting: Trichophyton mentagrophytes, 445, 120 h.
Where [11] appears, read: Aspergillus fumigatus, 231, 24 h.
[12] abbreviates: Aspergillus fumigatus, 231, 48 h.

In the case of `CN(C)C(=S)N/N=C/c1ccc(Cl)c(Cl)c1` [Compound 3h, (E)-2-(3,4-Dichlorobenzylidene)-N,N-dimethylhydrazinecarbothioamide], the MIC in data set [1] (ATCC44859, 24 h) worked out at 15.6 µM (≈ 4.31 µg/mL); in data set [1] (ATCC44859, 48 h) it was 31.2 µM (≈ 8.63 µg/mL); in data set [3] (setting [7]), 125 µM (≈ 34.5 µg/mL); in data set [3] (setting [8]), 500 µM (≈ 138 µg/mL); in the data set on Candida tropicalis 156 (Candida tropicalis, 156, 24 h), 500 µM (≈ 138 µg/mL); in the data set with Candida tropicalis 156 (Candida tropicalis, 156, 48 h) it was 500 µM (≈ 138 µg/mL). The same compound yielded a log k in data set [2] of 0.7555. Also, the IC50 in data set [4] (setting [9]) is 31.2 µM; in data set [4] (setting [10]), 62.5 µM; in data set [5] (setting [11]), > 500 µM; in data set [5] (setting [12]), > 500 µM; in data set [6], 329 µM.
For the compound `CN(C)C(=S)N/N=C/c1ccc(Br)cc1` [Compound 3m, (E)-2-(4-bromobenzylidene)-N,N-dimethylhydrazinecarbothioamide], the MIC in data set [1] (ATCC44859, 24 h) is 62.5 µM (≈ 17.9 µg/mL); in data set [1] (ATCC44859, 48 h), 250 µM (≈ 71.5 µg/mL); in data set [3] (setting [7]) it was 15.6 µM (≈ 4.47 µg/mL); in data set [3] (setting [8]), 62.5 µM (≈ 17.9 µg/mL); with Candida tropicalis 156 (Candida tropicalis, 156, 24 h) it was > 500 µM; with Candida tropicalis 156 (Candida tropicalis, 156, 48 h) it was > 500 µM. The log k in data set [2] stood at 0.6784. The IC50 in data set [4] (setting [9]) is 62.5 µM; in data set [4] (setting [10]), 62.5 µM; in data set [5] (setting [11]), > 500 µM; in data set [5] (setting [12]), > 500 µM; in data set [6], 595 µM.
Regarding `NC(=S)N/N=C/c1ccc(Br)cc1` [Compound 3k, (E)-2-(4-Bromobenzylidene)hydrazinecarbothioamide], the MIC in data set [1] (ATCC44859, 24 h) was 500 µM (≈ 129 µg/mL); in data set [1] (ATCC44859, 48 h), 500 µM (≈ 129 µg/mL); in data set [3] (setting [7]) it was 500 µM (≈ 129 µg/mL); in data set [3] (setting [8]), 500 µM (≈ 129 µg/mL); in the data set on Candida tropicalis 156 (Candida tropicalis, 156, 24 h), > 500 µM; with Candida tropicalis 156 (Candida tropicalis, 156, 48 h), > 500 µM. In data set [2], this compound gave a log k of 0.6580. For the same compound, the IC50 in data set [4] (setting [9]) was > 500 µM; in data set [4] (setting [10]), > 500 µM; in data set [5] (setting [11]), > 500 µM; in data set [5] (setting [12]) it was > 500 µM; in data set [6] it was 586 µM.
